Experimental data reported in US20220170096A1, “INTERLEUKIN-4-INDUCED GENE 1 (IL4I1) AS A BIOMARKER AND USES THEREOF” (DEUTSCHES KREBSFORSCHUNGSZENTRUM STIFTUNG DES OEFFENTLICHEN …, priority 2019, published 2022).

Key:
AHR = AHR target gene expression (microarray, qRT-PCR) in glioblastoma cells treated with IL4I1 metabolites; type: cell-based, human; settings: U-87MG cells; for induction of the AHR target gene TIPARP (mRNA): 24 h, KynA 50 μM; for modulation of AHR target genes / AHR activation signature genes: 40 μM for 24 h (microarray), TIPARP mRNA 24 h
Experimental: Array datasets—The affymetrix microarray chips “human gene 2.0 ST” were analyzed using the oligo package and annotated using NetAffx (14). Raw CEL files were RMA normalized and summarized. Differential gene expression was performed using the limma pipeline for microarrays (15).
For treatment of adherent cells with established and hypothetical AHR ligands, 4×10^5 cells per well were seeded in six well plates and incubated for 24 h prior to treatment. Non-adherent cells were seeded in 24 well plates at 5×10^5 cells in 1 mL and treated immediately. For verification of the generated AHR signature, cells were treated with the established AHR agonist Kyn (50 μM, SigmaAldrich, K8625) for 24 h. […] When using the AHR antagonist SR1 (1 μM, Merck Millipore, 182706), cells were treated for 24 h alone or in combination with AHR ligands.
Total RNA was harvested from cultured cells using the RNeasy Mini Kit (Qiagen, 80204) followed by cDNA synthesis using the High Capacity cDNA reverse transcriptase kit (Applied Biosystems, 4368813). A StepOne Plus real-time PCR system (Applied Biosystems) was used to perform real-time PCR of cDNA samples using SYBR Select Master mix (Thermo Scientific, 4309155). Data was processed and analysed using the StepOne Software v 2.3. Relative quantification of target genes was done against RNA18S as reference gene using the […] method.

GFP-tagged Ahr = target: T1, GFP-tagged Ahr (Mus musculus, UniProt P30561); assay: AHR nuclear translocation assay in GFP-Ahr expressing tao BpRc1c cells; type: cell-based, murine; settings: 25 μM, 4 h
T1 construct: expressed in transfected cells; host or cells: murine hepatoma tao BpRc1 cells (deficient of endogenous Ahr), retroviral transfection, tet-off system
T1 sequence (P30561 10-848): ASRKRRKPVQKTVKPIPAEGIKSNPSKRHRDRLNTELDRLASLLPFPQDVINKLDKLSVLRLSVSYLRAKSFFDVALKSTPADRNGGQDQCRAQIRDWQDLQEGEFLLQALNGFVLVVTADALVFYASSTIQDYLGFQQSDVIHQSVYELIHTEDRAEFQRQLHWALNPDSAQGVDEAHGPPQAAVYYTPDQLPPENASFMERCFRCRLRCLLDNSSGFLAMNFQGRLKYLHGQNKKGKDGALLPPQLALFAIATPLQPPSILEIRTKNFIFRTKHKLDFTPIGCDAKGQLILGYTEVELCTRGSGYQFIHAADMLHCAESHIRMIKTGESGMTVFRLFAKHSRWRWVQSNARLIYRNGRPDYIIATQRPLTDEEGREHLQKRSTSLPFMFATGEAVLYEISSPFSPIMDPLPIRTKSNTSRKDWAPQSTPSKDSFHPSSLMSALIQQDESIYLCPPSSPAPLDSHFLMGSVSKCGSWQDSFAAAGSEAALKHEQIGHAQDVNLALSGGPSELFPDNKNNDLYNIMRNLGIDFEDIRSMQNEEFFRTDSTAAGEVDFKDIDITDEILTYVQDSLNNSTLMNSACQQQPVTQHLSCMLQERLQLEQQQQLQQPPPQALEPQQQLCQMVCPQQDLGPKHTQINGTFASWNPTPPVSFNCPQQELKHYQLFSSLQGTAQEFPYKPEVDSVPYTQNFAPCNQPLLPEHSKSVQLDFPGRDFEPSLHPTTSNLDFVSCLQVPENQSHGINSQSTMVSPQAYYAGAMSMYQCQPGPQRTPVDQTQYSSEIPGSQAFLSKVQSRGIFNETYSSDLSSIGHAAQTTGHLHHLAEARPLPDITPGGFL
Experimental: Stably transfected tao BpRc1c cells, expressing a GFP-tagged Ahr under tetracycline control, were used to visualize nuclear translocation of Ahr.
For induction of GFP-Ahr expression in the transgenic tao BpRc1c cells, cells were taken off tetracycline 24 h before translocation assays. Assays were performed in black clear bottom 96-well plates (BD, #353219) with 7500 cells/well in 150 μl/well. Metabolites were added in 50 μL/well induction medium. Cells were exposed for 4h to 25 μM PP, HPP, and I3P respectively. Medium was discarded and cells fixed with pre-warmed 3.7% formaldehyde in PBS (10 min at RT). After fixation cells were washed with detergent buffer (DB, 0.01% Tween20 in PBS, Sigma Aldrich), followed by permeabilization with 0.1% Triton X-100 in PBS (Sigma Aldrich) for 15 min at RT. Cells were washed twice with DB and incubated with 0.4 ng/ml Hoechst 33342 (Sigma Aldrich) for 30 min at RT protected from light. After washing with DB and PBS cells were stored in PBS at 4° C. until translocation analysis. Translocation by KynA was monitored by live cell imaging after 3 h of exposure including the appropriate negative medium control. Translocation of Ahr by the different metabolites was monitored on a BD Pathway Imager 855.

U-87MG cells = assay: Metabolites in supernatants of U-87MG cells treated with I3P; type: cell-based, human; settings: increasing concentrations of I3P, 24 h
Experimental: For treatment of adherent cells with established and hypothetical AHR ligands, 4×10^5 cells per well were seeded in six well plates and incubated for 24 h prior to treatment. Non-adherent cells were seeded in 24 well plates at 5×10^5 cells in 1 mL and treated immediately. For verification of the generated AHR signature, cells were treated with the established AHR agonist Kyn (50 μM, SigmaAldrich, K8625) for 24 h. In order to investigate the potential of direct and downstream IL4I1 metabolites to activate the AHR, cells were treated with […] When using the AHR antagonist SR1 (1 μM, Merck Millipore, 182706), cells were treated for 24 h alone or in combination with AHR ligands. […] Consumption of phenylalanine, tyrosine and Trp by IL4I1-expressing and non-expressing U-87MG and U-251MG cells was assessed by quantification of the amino acids in the cell culture supernatants after 120 h incubation. […] The derivatization product was separated at 42° C. on an Acquity BEH C18 column (Waters) using an Acquity H-class UPLC system (Waters) coupled to an Acquity fluorescence detector (FLR) (Waters). Samples were analyzed on the UPLC as described before by Yang et. al., 2015^21. […] Trp was detected by fluorescence (Acquity FLR detector, Waters, excitation: 254 nm, emission: 401 nm). Standards were used for quantification (Sigma). […] For targeted quantification of the metabolites, MRM mode was used. […]

[1] = Conversion of I3P to kynurenic acid in PBS with or without H2O2 (HPLC); type: physicochemical; settings: 3.33 mg/mL I3P in PBS, 24 h, with or without 1 mM H2O2
Experimental: Black, lowest peak: 3.33 mg/mL I3P in phosphate buffered saline (PBS) incubated for 24 h. Grey peak: 3.33 mg/mL I3P incubated in PBS in the presence of 1 mM H2O2 for 24 h (n=2). c-e, TIPARP mRNA expression in U-87MG cells treated with IAA (c), ILA (d), I3CA (e) or vehicle for 24 h (n=3). f, TIPARP mRNA expression in shCtrl and shAHR U-87MG cells treated with 50 μM KynA or vehicle for 24 h (n=3). g, Representative images of GFP-Ahr expressing tao BpRc1c cells treated with either vehicle or 50 μM KynA for 1 h. n values represent independent experiments. Data are presented as mean±S.E.M and were analyzed by two-tailed paired student's t-test (a, b, h) or repeated measures ANOVA with Dunnett's multiple comparisons test (c, e-g). *P<0.05, **P<0.01, ***P<0.001, ****P<0.0001. n.s., not significant.

Row | SMILES | induction of the AHR target gene TIPARP (mRNA) (AHR) | modulation of AHR target genes / AHR activation signature genes (AHR) | nuclear translocation of the AHR (GFP-tagged Ahr) | IAA, I3CA and kynurenic acid in the cell supernatants after treatment (U-87MG cells) | formation of kynurenic acid from I3P [1]
1 | O=Cc1c[nH]c2ccccc12 [I3CA, indole-3-carboxaldehyde] | induced TIPARP transcripts |  |  |  | 
2 | O=C(O)C(O)Cc1c[nH]c2ccccc12 (stereo not shown) [I3L, indole-3-lactic acid] | did not observe relevant induction |  |  |  | 
3 | O=C(O)C(=O)Cc1c[nH]c2ccccc12 [I3P, indole-3-pyruvic acid] |  | significant regulation | observed only in response to I3P | dose-dependent increase | formed spontaneously from I3P, which was enhanced in the presence of H2O2
4 | O=C(O)C(=O)Cc1ccccc1 [PP, phenylpyruvic acid] |  | did not elicit relevant modulation |  |  | 
